{"source": "patent US8912150B2", "about": "“Ribosome structure and protein synthesis inhibitors” (Rib-X Pharmaceuticals, Inc., priority 2001, dated 2014)", "key": {"ribosomes [1]": {"system": "ribosomes", "conditions": "S. pneumoniae; cited from earlier work"}, "E. coli S30 extract": {"system": "E. coli S30 extract", "format": "biochemical"}, "[2]": {"target": "rabbit reticulocyte lysate", "experiment": "Translation inhibition in rabbit reticulocyte lysate system (luciferase mRNA)", "format": "biochemical"}, "ribosomes [3]": {"system": "ribosomes", "conditions": "macrolide-poisoned ribosomes; cited from earlier work"}, "[4]": {"system": "ribosome peptidyl transferase", "conditions": "cited from earlier work"}}}
{"compound": "CC[C@H]1OC(=O)[C@H](C)C(=O)[C@H](C)[C@@H](O[C@@H]2O[C@H](C)C[C@H](N(C)C)[C@H]2O)[C@](C)(OCC=Cc2cnc3ccccc3c2)C[C@@H](C)C(=O)[C@H](C)[C@H]2NC(=O)O[C@@]21C", "note": "[ABT-773]", "values": [{"measurement": "ribosome binding relative to erythromycin", "setting": "ribosomes [1]", "result": "binds ribosomes tighter than erythromycin"}]}
{"compound": "COc1ccc(C[C@H]2NC[C@H](O)[C@H]2OC(C)=O)cc1", "note": "[anisomycin]", "values": [{"measurement": "IC50", "setting": "E. coli S30 extract", "result": "> 100", "unit": "µM"}, {"measurement": "IC50", "setting": "[2]", "result": 0.19, "unit": "µM"}]}
{"compound": "CO[C@@H]1[C@@H](O[C@@H]2O[C@H](C)[C@@H](O[C@H]3C[C@@](C)(O)[C@@H](OC(=O)CC(C)C)[C@H](C)O3)[C@H](N(C)C)[C@H]2O)[C@@H](CC=O)C[C@@H](C)C(=O)/C=C/[C@@H]2O[C@H]2C[C@@H](C)OC(=O)C[C@H]1OC(C)=O", "note": "[carbomycin A]", "values": [{"measurement": "length of oligopeptides synthesized in presence of macrolide", "setting": "ribosomes [3]", "result": "strongly inhibits the formation of even the first peptide bond"}]}
{"compound": "O=C(N[C@H](CO)[C@H](O)c1ccc([N+](=O)[O-])cc1)C(Cl)Cl", "note": "[chloramphenicol]", "values": [{"measurement": "IC50", "setting": "E. coli S30 extract", "result": 12.3, "unit": "µM"}, {"measurement": "IC50", "setting": "[2]", "result": "> 100", "unit": "µM"}]}
{"compound": "CC[C@H]1OC(=O)[C@H](C)[C@@H](O[C@H]2C[C@@](C)(OC)[C@@H](O)[C@H](C)O2)[C@H](C)[C@@H](O[C@@H]2O[C@H](C)C[C@H](N(C)C)[C@H]2O)[C@](C)(O)C[C@@H](C)C(=O)[C@H](C)[C@@H](O)[C@]1(C)O", "note": "[erythromycin]", "values": [{"measurement": "length of oligopeptides synthesized in presence of macrolide", "setting": "ribosomes [3]", "result": "permit the formation of tetrapeptides"}]}
{"compound": "CC[C@H]1OC(=O)C[C@@H](O)[C@H](C)[C@@H](O[C@@H]2O[C@H](C)[C@@H](O[C@H]3C[C@@](C)(O)[C@@H](O)[C@H](C)O3)[C@H](N(C)C)[C@H]2O)[C@@H](CC=O)C[C@@H](C)C(=O)/C=C/C(C)=C/[C@@H]1CO[C@@H]1O[C@H](C)[C@@H](O)[C@@H](OC)[C@H]1OC", "note": "[tylosin]", "values": [{"measurement": "length of oligopeptides synthesized in presence of macrolide", "setting": "ribosomes [3]", "result": "allow formation of only dipeptides"}]}
{"compound": "CCdA-phosphate-puromycin [CCdA-p-Puro]", "values": [{"measurement": "binding to the ribosome", "setting": "[4]", "result": "binds tightly to the ribosome"}, {"measurement": "inhibition of peptidyl transferase activity", "setting": "[4]", "result": "inhibits its peptidyl transferase activity"}]}
{"compound": "spiramycin", "values": [{"measurement": "length of oligopeptides synthesized in presence of macrolide", "setting": "ribosomes [3]", "result": "allow formation of only dipeptides"}]}
